Values quoted from earlier work in patent US20230233180A1, “Emergency Ultrasound Gel” (priority 2022, published 2023).
Values after ≈ are worked out from the molar mass of the structure shown. Read-outs that look alike come from different tables or passages of the source.

Columns and labels:
wide range of bacteria = conditions: bactericidal
[1] = test system: wide variety of yeast and fungi

Row | Structure (SMILES) | concentration that kills a wide range of bacteria (wide range of bacteria) [%] | antifungal effect [1] | MIC (Candida albicans; Canddia albicans M9) [µg/mL] | MIC (Candida albicans; Candida albicans 10231) [µg/mL] | MIC (Candida albicans; Candida albicans H33) [µg/mL] | MIC (Candida albicans; Candida albicans H37) [µg/mL] | MIC (Candida albicans; Candida albicans H38) [µg/mL] | MIC (Candida albicans; Candida albicans M28) [µg/mL] | MIC (Candida albicans; Candida albicans M36) [µg/mL] | MIC (Candida albicans; Candida albicans SCO) [µg/mL] | MIC (Candida albicans; Candida albicans Ser5) [µg/mL] | MIC (Candida albicans; Candida. albicans H65) [µg/mL]
1 | O=C([O-])CNCO.[Na+] [Sodium hydroxymethylglycinate] | 0.09 | does not have strong antifungal effect |  |  |  |  |  |  |  |  |  | 
2 | CCCCN1CCCCC1C(=O)Nc1c(C)cccc1C (stereo not shown) [Bupivacaine] |  |  | 1300 (≈ 4.51 mM) | 2500 (≈ 8.67 mM) | 2500 (≈ 8.67 mM) | 5000 (≈ 17.3 mM) | 2500 (≈ 8.67 mM) | 1300 (≈ 4.51 mM) | 2500 (≈ 8.67 mM) | 1300 (≈ 4.51 mM) | 2500 (≈ 8.67 mM) | 1300 (≈ 4.51 mM)
3 | CCN(CC)CC(=O)Nc1c(C)cccc1C [Lidocaine] |  |  | 2500 (≈ 10.7 mM) | 5000 (≈ 21.3 mM) | 5000 (≈ 21.3 mM) | 10000 (≈ 42.7 mM) | 5000 (≈ 21.3 mM) | 2500 (≈ 10.7 mM) | 5000 (≈ 21.3 mM) | 2500 (≈ 10.7 mM) | 5000 (≈ 21.3 mM) | 2500 (≈ 10.7 mM)
